Here are results for five compounds from patent publication US5008294A, “Methods of treating tumors with compositions of catecholic butanes” (priority 1987, dated 1991).

In general, inhibition refers to how much of the control response was suppressed.

Where two headings read alike, the source gives them in different places.

The subject of data set [1] is MX-1 (human breast adenocarcinoma) cells. The data set is described as follows: In vivo antitumor effect on MX-1 cells implanted subcutaneously in nude mice, intratumoral injection (Example 6). As to conditions: 0.1 ml injected directly into the tumor. As to the method:
The in vivo antitumor effect of NDGA at various survival levels was determined using MX-1 (human breast adenocarcinoma) cells implanted subcutaneously in the flank of nude mice.
Tumors which reached the 25-100 mm^2 range were used for the experiment. 0.1 ml of the test compound in solution was injected directly into the tumor. The tumors were measured periodically to determine their weight until 60 days after the initial treatment or all mice had died.

In the next data set the test system is melanoma (B-16). The experiment in a line: Effect against melanoma (B-16). Details: species or system mouse.
Data set [2] has as its system human breast adenocarcinoma, MX-1. The experiment in a line: Antineoplastic activity by topical application in athymic mice implanted intradermally with human breast adenocarcinoma MX-1 (Examples 7 and 8). The class given is in vivo. As to conditions: 4.4 wt/wt% composition (Table 8). The procedure: A composition containing 17.6% NDGA and 1% BHT in Pego 400 was tested for antineoplastic activity in athymic mice implanted with human breast adenocarcinoma, MX-1. Each animal was innoculated intradermally on the dorsum near the nape of the neck with 0.5 ml of a MX-1 homogenate. The animals were treated by topical application with the NDGA composition after day 23. Compositions containing 4.4 wt/wt% of meso and DL NDGA were tested for efficacy against the MX-1 tumor as in Example 7.

The subject of a further data set is human cancer patients. The following applies: ingested; Smart et al. 1970; cited from earlier work.
Data set [3] can be described thus: Absorption of harmful sunlight (ultraviolet) radiation (Example 10). The class given is physicochemical. As to the method:
The ability of NDGA to absorb harmful sunlight radiation was tested.

Another data set has as its system tumor induction by DMBA. The data set is described as follows: Anticarcinogenic activity in mice: NDGA+DMBA+TPA (Example 9). The class given is in vivo, SENCAR mice. The following applies: NDGA 3 mg topical, five consecutive days before DMBA and TPA. The procedure:
(§1) Mice were exposed to dimethyl benzanthracene (DMBA), a classical tumor inducer, and to phorbol ester (TPA), a classical tumor promoter, after having been treated with NDGA.
(§2) Twenty mice were included in each of the following groups:
(§3) 1. Positive control group: DMBA+TPA. Female SENCAR mice 6-8 weeks old received a single topical application of […] of DMBA in 0.2 ml of acetone as the initiating agent. After one week, animals received twice weekly applications of tumor promoter TPA in 0.1 ml of acetone. Tumor formation was recorded weekly.
3. Anticarcinogenic activity: NDGA+DMBA+TPA. For five consecutive days animals received topical applications of NDGA (3 mg.) in 0.2 ml of acetone. 24 hours after the last treatment with NDGA, animals received DMBA and TPA exactly as in the positive control group.

Data set [4] has as its system hepatic and colon carcinoma. The experiment in a line: Treatment of hepatic and colon carcinoma. The source says:
The catecholic butanes, when applied parenterally or by injection, are excreted primarily through the liver and gut, and therefore exert preferential cytotoxicity to tumors located in those organs.

The subject of data set [5] is several types of cancer cells. The following applies: Leiter et al.; cited from earlier work.
For data set [6], the system named is human breast adenocarcinoma (MX-1). The data set is described as follows: Effect against human breast adenocarcinoma (MX-1).
Data set [7] concerns CMT-12 cultured canine breast adenocarcinoma tumor cells. The data set is described as follows: Clonogenic assay, antiproliferative effect on CMT-12 canine breast adenocarcinoma cells (Example 3). The class given is cell-based. The following applies: for No. Tumor Colonies Surviving: one hour at 37° C. As to the method: The antiproliferative effect of NDGA on CMT-12 cultured canine breast adenocarcinoma tumor cells was evaluated in clonogenic (cancer cell) assays.
(§4) Single cell suspensions of tumor cells harvested from culture flasks were exposed to the different compositions of NDGA for one hour at 37° C in liquid medium, and the cells were then washed twice, suspended in agarose medium and plated and the number of colony forming cells were determined. Results are expressed as percent inhibition of survival of clonogenic cells in treated cultures relative to nontreated control cultures. Significant anticancer activity was defined as>70% inhibition of the survival of colony-forming (tumor) cells.

Data set [8] deals with human lung tumor cell line LX-T. The experiment in a line: Antitumor effect against human lung tumor cell line LX-T (clonogenic assay / DNA flow cytometry with DAPI, Example 5). The class given is cell-based. The procedure: The antitumor effect of NDGA against the human lung tumor cell line LX-T was determined utilizing a clonogenic assay.
Serial dilutions of the test stock solutions were made in 15 ml of Ca^2+ --and Mg^2+ --free Hank's balanced salt solution (HBSS).
The LX-T cells were incubated in the presence of various amounts of NDGA, and the antitumor effect was determined by measuring the DNA […] of the LX-T nuclei using DNA flow cytometric analysis with a DNA-specific fluorochrome, 4', 6-diamidino-2-phenylindole (DAPI).
(In flow cytometry, cells or beads pass a laser one at a time.)

Another data set relates to tumor cells. The experiment in a line: Enhancement of X-ray radiation effectiveness by topical application. As to conditions: applied topically; without radiation toxicity to surrounding uninvolved skin. The source says:
Consequently, the catecholic butanes may be useful in the treatment of cutaneous afflictions such as Kaposi's sarcoma.

Data set [9] in a line: Stability against oxidation. The class given is physicochemical. As to conditions: for example, by air; more stable at lower pH. The source says: The pH of the formulation is important in assuring stability of the catecholic butane as well as assuring that the formulation is physiologically acceptable to the patient. […] Such oxidation can result in discoloration of the formulation rendering it unacceptable for pharmaceutical use. […] Therefore, it is preferred that if the formulation is to be exposed to oxidizing conditions the pH be maintained below about 7.5 and preferably below about 6 in order to provide maximum stability for the catechol against oxidation. However, if oxidizing conditions can be avoided, for example, by storage of the formulation under an inert atmosphere such as nitrogen, a higher pH can be used. The pH of the formulation may be maintained through the use of toxicologically-acceptable buffers. Such buffers are well known in the pharmaceutical formulation art, and include hydrochloric acid buffer, acid phthalate buffer, phosphate buffer and citric acid/sodium citrate buffer.

The test system of the next data set is TPA tumor promotion. The data set is described as follows: Antipromoting activity in mice: DMBA+NDGA+TPA (Example 9). The class given is in vivo, SENCAR mice. The following applies: NDGA 9 mg topical 30 minutes prior to each TPA application. The procedure:
as §1, §2, §3
2. Antipromoting activity: DMBA+NDGA+TPA. 30 minutes prior to each application of TPA animals received topical application of NDGA (9 mg.) in 0.2 ml of acetone.

Data set [10] relates to lung squamous cell carcinoma (LX-1). The data set is described as follows: Effect against lung squamous cell carcinoma (LX-1). Details: species or system human.
Data set [11] concerns MC-1 equine sarcoid-derived cell line. The experiment in a line: Inhibition of in vitro colony growth of MC-1 equine sarcoid-derived cell line (Example 4). The class given is cell-based. As to conditions: for inhibition at 18 µM / inhibition at 27 µM / inhibition at 56 µM: Equus caballus, 336 h; for inhibition at 18 µM: 18 MicroMolar; for inhibition at 27 µM: 27 MicroMolar; for inhibition at 56 µM: 56 MicroMolar. As to the method: as §4
Compositions of NDGA were tested for their ability to inhibit in vitro growth of the MC-1 equine sarcoid-derived cell line, in experiments similar to those of Example 3.

The mark [12] stands for this setting: Day 14, mean of 3 experiments, read-out: % Inhibition (Mean).
[13] abbreviates: Day 14, read-out: Percentage Inhibition of Colony Growth, Experiment #1.
The mark [14] stands for this setting: Day 14, read-out: Percentage Inhibition of Colony Growth, Experiment #2.
The mark [15] stands for this setting: Day 14, read-out: Percentage Inhibition of Colony Growth, Experiment #3.

In the case of `C[C@H](Cc1ccc(O)c(O)c1)[C@@H](C)Cc1ccc(O)c(O)c1` [NDGA, meso-1,4-bis (3,4-dihydroxyphenyl)-2,3-dimethylbutane], the “ED(50)” value in data set [1] came out at 13.62 Micromoles. Further, the “ED(75)” value in [1] is 25.66 Micromoles. In addition, the “ED(90)” value in data set [1] is 48.33 Micromoles. For the same compound, the “ED(95)” value in data set [1] came to 74.34 Micromoles. Besides, the “effectiveness against melanoma (B-16)” value with melanoma (B-16) was “particularly effective”. Further, the “Tumor Free 60 Days” value in data set [2] is on record as 4/5. In data set [2], the “Tumor Recurrence” value turned out to be 0. The clinical outcome with human cancer patients is “some positive results”. In data set [3] (result in words), the absorption of sunlight result is “strongly absorb sunlight at wavelengths known to produce sunburn”. In addition, in data set [3] (solution in methanol), the “strong absorption in the ultraviolet region” value is recorded as 2816 Angstroms. In addition, in the data set with tumor induction by DMBA, the “reduction of the potential of tumor induction by DMBA” value is reported as “significantly reduce the potential of tumor induction by DMBA”. The “effectiveness in treating hepatic and colon carcinoma” value in data set [4] was “effective in treating hepatic and colon carcinoma”. Further, the screening result in [5] is given as “negative results”. Besides, the “effectiveness against human breast adenocarcinoma (MX-1)” value in data set [6] is “particularly effective”. The “No. Tumor Colonies Surviving” value in [7] (5 MicroMolar) was 229.7 ± 10.9; in data set [7] (10 MicroMolar) it was 173.3 ± 23.3; in data set [7] (18 microMolar), 190 ± 16.3; in data set [7] (27 microMolar), 40 ± 16.3; in [7] (56 microMolar), 3.3 ± 4.7. This compound also showed an inhibition at 10 µM in data set [7] (Canis lupus familiaris, 10 MicroMolar, survival of clonogenic cells relative to nontreated control) of 82.5%. Besides, the inhibition at 18 µM came out at 90.9% in data set [7] (Canis lupus familiaris, 18 microMolar, survival of clonogenic cells relative to nontreated control); 32.4% in [11] (setting [12]); 20.9% in [11] (setting [13]); 36.7% in data set [11] (setting [14]); 39.5% in data set [11] (setting [15]). Also, the inhibition at 27 µM in [7] (Canis lupus familiaris, 27 microMolar, survival of clonogenic cells relative to nontreated control) is 98.1%; in [11] (setting [12]) it was 47%; in data set [11] (setting [13]), 32.8%; in [11] (setting [14]) it was 58.9%; in [11] (setting [15]), 49.3%. Further, the inhibition at 56 µM in data set [7] (Canis lupus familiaris, 56 microMolar, survival of clonogenic cells relative to nontreated control) amounted to 99.8%; in data set [11] (setting [12]), 45.3%; in data set [11] (setting [13]), 33%; in data set [11] (setting [14]) it was 62.2%; in data set [11] (setting [15]), 40.7%. Further, the EC50 in [8] (50% cell growth inhibition, ± SD, read-out: Calculated ED(50)) is 17.6 ± 4.07 µM; in [8] (comparison with known anticancer drugs (Table 5B), read-out: ED(50) (the source's name)), 17.6 µM. Also, in data set [8] (75% cell growth inhibition, ± SD, read-out: Calculated ED(75)), the IC75 was 26.6 ± 12.1 µM. Moreover, the IC90 in [8] (90% cell growth inhibition, ± SD, read-out: Calculated ED(90)) was 41.1 ± 28.1 µM. For the same compound, in data set [8] (95% cell growth inhibition, ± SD, read-out: Calculated ED(95)), the IC95 is 55.9 ± 46.8 µM. Besides, the “enhancement of X-ray radiation effectiveness” value in the data set with tumor cells was “enhance the X-ray radiation effectiveness of the tumor cells without radiation toxicity to surrounding uninvolved skin”. Besides, the susceptibility to oxidation result in data set [9] was “susceptible to oxidation”. For the same compound, the “prevention of TPA tumor promotion” value with TPA tumor promotion is “nearly completely prevent TPA tumor promotion”. For the same compound, in [10], the “effectiveness against lung squamous cell carcinoma (LX-1)” value is “particularly effective”. The “inhibiting colony growth over the duration of the assay” value in data set [11] (especially noticable at 27 and 56 microMolar NDGA) is listed as “uniformly successful in inhibiting colony growth”.
With `O=c1[nH]cc(F)c(=O)[nH]1` [Composition 5-FU, reference compound], in [8] (read-out: ED(50)), the EC50 came out at 102 µM.
On the same count and under the same terms, in the case of `CO[C@@]12[C@H](COC(N)=O)C3=C(C(=O)C(C)=C(N)C3=O)N1C[C@@H]1N[C@@H]12` [Mutamycin, reference compound] it was 18.4 µM.
Same read-out and setting: under `COc1cccc2c1C(=O)c1c(O)c3c(c(O)c1C2=O)C[C@@](O)(C(=O)CO)C[C@@H]3O[C@H]1C[C@H](N)[C@H](O)[C@H](C)O1` [Adriamycin, reference compound] stands 25.6 µM.
`C[C@H](Cc1ccc(O)c(O)c1)[C@H](C)Cc1ccc(O)c(O)c1` (relative stereo) [dl-NDGA]: in data set [2], the “Tumor Free 60 Days” value is given as 4/5 and the “Tumor Recurrence” value worked out at 0.
